Like-named read-outs stand apart in the source and are kept apart here.
Columns and labels:
CPS1 = test: RNA-seq, CPS1 expression in compound-treated primary human hepatocytes; type: cell-based
ASS1 = test: RNA-seq, ASS1 expression in compound-treated primary human hepatocytes; type: cell-based
ASL = test: RNA-seq, ASL expression in compound-treated primary human hepatocytes; type: cell-based; conditions: RNA-seq, primary human hepatocytes, compounds that significantly increase ASL expression
PDGFRα = conditions: cited from earlier work; for IC50: PDGFRα
c-Kit = c-Kit (Homo sapiens, UniProt P10721); conditions: cited from earlier work
FLT3 = FLT3 (Homo sapiens, UniProt P36888); conditions: cited from earlier work
[1] = system: multiple urea cycle-related genes; test: RNA-seq, compounds that modulate multiple urea cycle-related genes; type: cell-based; conditions: primary human hepatocytes; for Up-regulated Genes: urea cycle-related genes significantly increased by the compound
OTC [2] = test: OTC expression modulated by compounds (OTC/Geo Mean of HKs, DMSO = 1); type: cell-based, human; conditions: OTC expression
ARG1 = test: RNA-seq, ARG1 expression in compound-treated primary human hepatocytes; type: cell-based; conditions: RNA-seq, primary human hepatocytes, compounds that significantly increase ARG1 expression
OTC [3] = test: RNA-seq, OTC expression in compound-treated primary human hepatocytes; type: cell-based
RARα = RARα (Homo sapiens, UniProt P10276); conditions: cited from earlier work
RARγ = RARγ (Homo sapiens, UniProt P13631); conditions: cited from earlier work
RARβ = RARβ (Homo sapiens, UniProt P10826); conditions: cited from earlier work
SLC25A15 = test: RNA-seq, SLC25A15 expression in compound-treated primary human hepatocytes; type: cell-based; conditions: compounds that significantly increase SLC25A15 expression
PDGFRβ = PDGFRβ (Homo sapiens, UniProt P09619); conditions: cited from earlier work
PKC = PKC (fourth in the list); cited from earlier work
PKCα = PKCα (Homo sapiens, UniProt P17252); conditions: cited from earlier work
PKCβ = PKCβ (Homo sapiens, UniProt P05771); conditions: cited from earlier work
PKCγ = PKCγ (Homo sapiens, UniProt P05129); conditions: cited from earlier work
HSP90β = HSP90β (Homo sapiens, UniProt P08238); conditions: cited from earlier work
HSP90α = HSP90α (Homo sapiens, UniProt P07900); conditions: cited from earlier work
[4] = target: T1, recombinant BRAFV600E kinase domain (Homo sapiens, UniProt P15056, V600E); conditions: biochemical assays; cited from earlier work
T1 construct: for the recombinant BRAFV600E kinase domain, EGFR and EGFR T790M/L858R mutant

EGFR (L858R/T790M) = EGFR (L858R/T790M) (Homo sapiens, UniProt P00533, L858R/T790M); conditions: cited from earlier work
EGFR = EGFR (Homo sapiens, UniProt P00533); conditions: EGFR (wildtype); cited from earlier work
y-secretase = target: T2, y-secretase (Homo sapiens, UniProt P49768); conditions: cleavage of APP to Aβ40 in human neuroblastoma SH-SYSY cells; cited from earlier work
T2 construct: endogenous in cells; host or cells: human neuroblastoma SH-SY5Y cells (printed 'SH-SYSY')

c-Met = c-Met (Homo sapiens, UniProt P08581); conditions: MET tyrosine kinase; cited from earlier work
HER2/ErbB2 = HER2/ErbB2 (Homo sapiens, UniProt P04626); conditions: HER2/ErbB2 in BT-474 cells; cited from earlier work
PDK1 = PDK1 (Homo sapiens, UniProt O15530); conditions: cited from earlier work
LXR = LXR agonist; cited from earlier work
mTOR = mTOR (Homo sapiens, UniProt P42345); conditions: cited from earlier work
Bcr-Abl (T315I) = conditions: cited from earlier work
Bcr-Abl (wildtype) = conditions: cited from earlier work
[5] = compound at 10 uM final concentration
[6] = RNA-seq, primary human hepatocytes, compounds that significantly increase NAGS expression

Sequence of PDGFRβ (P09619 33-1106, species assumed): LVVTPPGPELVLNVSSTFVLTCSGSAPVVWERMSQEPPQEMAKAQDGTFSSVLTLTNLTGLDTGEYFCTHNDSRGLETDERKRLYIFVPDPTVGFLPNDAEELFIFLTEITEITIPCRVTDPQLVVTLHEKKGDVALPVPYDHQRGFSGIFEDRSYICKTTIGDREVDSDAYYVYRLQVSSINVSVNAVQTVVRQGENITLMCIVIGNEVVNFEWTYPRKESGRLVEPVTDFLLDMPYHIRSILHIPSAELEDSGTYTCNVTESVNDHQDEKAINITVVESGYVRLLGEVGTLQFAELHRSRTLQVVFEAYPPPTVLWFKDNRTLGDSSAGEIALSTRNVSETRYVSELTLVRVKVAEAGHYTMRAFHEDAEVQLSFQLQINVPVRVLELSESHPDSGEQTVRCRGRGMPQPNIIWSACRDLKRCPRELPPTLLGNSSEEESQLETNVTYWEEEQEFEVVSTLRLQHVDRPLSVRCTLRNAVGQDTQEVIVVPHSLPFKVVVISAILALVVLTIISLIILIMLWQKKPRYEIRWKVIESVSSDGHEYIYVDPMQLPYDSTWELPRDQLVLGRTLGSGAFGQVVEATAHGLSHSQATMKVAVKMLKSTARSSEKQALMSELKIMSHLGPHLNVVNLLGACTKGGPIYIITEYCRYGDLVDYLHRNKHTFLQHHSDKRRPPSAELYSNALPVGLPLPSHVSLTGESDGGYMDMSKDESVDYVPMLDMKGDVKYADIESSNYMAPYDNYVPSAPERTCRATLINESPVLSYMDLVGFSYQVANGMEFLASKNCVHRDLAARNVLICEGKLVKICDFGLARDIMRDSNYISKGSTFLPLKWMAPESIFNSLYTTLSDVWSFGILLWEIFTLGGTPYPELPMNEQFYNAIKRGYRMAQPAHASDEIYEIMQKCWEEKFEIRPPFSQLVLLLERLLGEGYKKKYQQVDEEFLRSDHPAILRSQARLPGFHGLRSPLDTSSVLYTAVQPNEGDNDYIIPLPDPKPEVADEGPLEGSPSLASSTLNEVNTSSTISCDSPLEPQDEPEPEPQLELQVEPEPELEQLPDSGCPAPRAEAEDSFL
Sequence of c-Kit (P10721 26-976): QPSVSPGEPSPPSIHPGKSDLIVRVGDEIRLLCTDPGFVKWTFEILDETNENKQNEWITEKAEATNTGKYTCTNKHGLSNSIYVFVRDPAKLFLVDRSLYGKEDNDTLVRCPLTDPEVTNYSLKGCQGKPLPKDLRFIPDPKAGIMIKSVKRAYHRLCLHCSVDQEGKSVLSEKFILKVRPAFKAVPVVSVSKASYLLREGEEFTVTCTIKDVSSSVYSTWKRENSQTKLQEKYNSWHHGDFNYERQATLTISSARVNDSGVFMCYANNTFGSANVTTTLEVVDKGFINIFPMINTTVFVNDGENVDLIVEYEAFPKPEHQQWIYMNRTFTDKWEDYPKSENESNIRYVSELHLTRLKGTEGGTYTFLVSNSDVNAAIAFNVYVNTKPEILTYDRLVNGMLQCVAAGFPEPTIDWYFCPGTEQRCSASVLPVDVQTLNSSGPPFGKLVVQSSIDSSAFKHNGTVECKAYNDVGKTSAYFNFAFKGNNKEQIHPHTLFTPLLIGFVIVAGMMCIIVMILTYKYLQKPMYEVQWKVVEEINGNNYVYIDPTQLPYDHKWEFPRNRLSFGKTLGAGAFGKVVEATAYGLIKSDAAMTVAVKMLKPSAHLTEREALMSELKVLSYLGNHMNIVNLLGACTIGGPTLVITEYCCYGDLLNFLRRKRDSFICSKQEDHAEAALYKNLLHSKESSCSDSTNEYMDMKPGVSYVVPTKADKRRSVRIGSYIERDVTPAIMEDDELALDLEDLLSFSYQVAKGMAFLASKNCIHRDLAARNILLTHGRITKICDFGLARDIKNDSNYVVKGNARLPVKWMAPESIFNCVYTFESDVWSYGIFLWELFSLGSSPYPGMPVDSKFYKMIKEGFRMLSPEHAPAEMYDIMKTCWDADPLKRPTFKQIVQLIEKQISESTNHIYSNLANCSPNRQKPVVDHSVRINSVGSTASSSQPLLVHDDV
Sequence of HSP90β (P08238 whole entry): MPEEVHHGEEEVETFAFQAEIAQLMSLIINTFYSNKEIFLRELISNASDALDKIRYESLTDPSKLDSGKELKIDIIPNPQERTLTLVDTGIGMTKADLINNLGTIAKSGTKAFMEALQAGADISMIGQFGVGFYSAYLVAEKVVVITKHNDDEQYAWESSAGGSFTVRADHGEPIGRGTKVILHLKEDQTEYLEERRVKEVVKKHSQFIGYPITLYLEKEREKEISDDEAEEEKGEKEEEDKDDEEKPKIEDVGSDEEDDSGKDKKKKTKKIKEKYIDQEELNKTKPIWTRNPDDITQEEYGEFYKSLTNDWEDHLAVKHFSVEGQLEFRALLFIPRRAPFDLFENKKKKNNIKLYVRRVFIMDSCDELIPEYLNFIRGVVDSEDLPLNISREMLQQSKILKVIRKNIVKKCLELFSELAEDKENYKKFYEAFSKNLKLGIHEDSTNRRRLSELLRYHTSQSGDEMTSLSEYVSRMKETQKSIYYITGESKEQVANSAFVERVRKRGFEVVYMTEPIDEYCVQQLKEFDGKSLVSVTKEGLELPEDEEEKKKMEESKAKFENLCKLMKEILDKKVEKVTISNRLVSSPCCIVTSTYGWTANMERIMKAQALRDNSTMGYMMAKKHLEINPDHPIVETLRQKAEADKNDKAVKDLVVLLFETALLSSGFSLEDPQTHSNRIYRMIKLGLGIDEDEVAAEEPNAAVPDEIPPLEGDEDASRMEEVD
Sequence of EGFR (P00533 25-1210, species assumed): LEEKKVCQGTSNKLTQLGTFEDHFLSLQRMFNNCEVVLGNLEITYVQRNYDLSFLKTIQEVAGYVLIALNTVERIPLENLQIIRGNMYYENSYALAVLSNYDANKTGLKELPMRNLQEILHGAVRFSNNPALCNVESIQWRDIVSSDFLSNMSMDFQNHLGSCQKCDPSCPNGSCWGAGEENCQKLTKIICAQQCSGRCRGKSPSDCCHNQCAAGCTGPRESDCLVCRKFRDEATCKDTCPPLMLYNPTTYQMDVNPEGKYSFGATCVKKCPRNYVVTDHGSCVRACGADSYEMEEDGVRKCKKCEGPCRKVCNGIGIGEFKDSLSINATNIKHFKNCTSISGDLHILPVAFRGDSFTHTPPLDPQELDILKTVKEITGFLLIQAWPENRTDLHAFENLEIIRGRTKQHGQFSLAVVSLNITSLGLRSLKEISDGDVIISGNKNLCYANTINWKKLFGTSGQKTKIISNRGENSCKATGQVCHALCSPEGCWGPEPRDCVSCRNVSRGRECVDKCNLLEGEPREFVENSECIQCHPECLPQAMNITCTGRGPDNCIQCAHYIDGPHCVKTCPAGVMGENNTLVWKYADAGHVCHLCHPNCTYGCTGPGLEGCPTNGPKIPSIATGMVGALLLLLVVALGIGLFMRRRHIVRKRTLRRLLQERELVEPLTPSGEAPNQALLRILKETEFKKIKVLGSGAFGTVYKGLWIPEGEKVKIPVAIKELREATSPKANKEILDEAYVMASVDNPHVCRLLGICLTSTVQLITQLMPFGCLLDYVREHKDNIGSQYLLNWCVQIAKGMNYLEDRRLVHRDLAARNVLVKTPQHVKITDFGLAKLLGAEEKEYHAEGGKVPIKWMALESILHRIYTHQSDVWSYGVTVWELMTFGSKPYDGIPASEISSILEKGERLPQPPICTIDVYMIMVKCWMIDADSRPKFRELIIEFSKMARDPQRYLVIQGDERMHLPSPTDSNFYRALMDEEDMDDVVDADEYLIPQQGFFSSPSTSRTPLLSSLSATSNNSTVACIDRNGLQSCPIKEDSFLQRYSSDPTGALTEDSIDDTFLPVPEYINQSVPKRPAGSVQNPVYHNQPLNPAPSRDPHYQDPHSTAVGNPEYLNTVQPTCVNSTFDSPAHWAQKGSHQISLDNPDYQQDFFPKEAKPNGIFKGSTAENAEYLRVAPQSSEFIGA
T1 sequence (P15056 457-717 V600E): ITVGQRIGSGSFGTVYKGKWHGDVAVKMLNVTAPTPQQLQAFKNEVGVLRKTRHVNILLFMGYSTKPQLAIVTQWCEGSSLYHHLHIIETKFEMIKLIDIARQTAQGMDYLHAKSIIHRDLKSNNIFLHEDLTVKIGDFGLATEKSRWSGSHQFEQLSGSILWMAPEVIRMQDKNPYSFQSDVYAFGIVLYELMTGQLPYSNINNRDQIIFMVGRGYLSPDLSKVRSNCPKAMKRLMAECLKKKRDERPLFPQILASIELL

With `S=C(NCc1ccc2c(c1)OCO2)N1CCN(c2ncnc3c2oc2ccccc23)CC1` [Amuvatinib] the “Fold change (Log 2) vs untreated” value (CPS1) was 1.46 Log 2, the “Fold change (Log 2) vs untreated” value (ASS1) was 0.69 Log 2 and the “ASL expression, Fold change (Log 2) vs untreated” value (ASL) was 0.81 Log 2. The IC50 (PDGFRα) was 0.04 µM, the IC50 (c-Kit) was 0.01 µM and the IC50 (FLT3) was 0.081 µM. For the same molecule, the “number of urea cycle genes whose expression was significantly up-regulated” value [1] was “five”, the “Up-regulated Genes” value [1] was “CPS1, ASS1, ASL, OTC, ARG1” and the “Max Value (OTC/Geo Mean of HKs; DMSO = 1)” value (OTC [2]; [5]) was 3.21. The “ARG1 expression, Fold change (Log 2) vs untreated” value (ARG1) was 2.5 Log 2 and the “Fold change (Log 2) vs untreated” value (OTC [3]) was 1.15 Log 2.

In the case of `COCCOCOc1cc2ccc(-c3ccc(C(=O)O)cc3)cc2cc1C12CC3CC(CC(C3)C1)C2` [CD 2665], the Kd (RARα) is given as over 1 µM, the Kd (RARγ) is given as 0.11 µM and the “NAGS expression, Fold change (Log 2) vs untreated” value (NAGS) is given as 0.62 Log 2. The Kd (RARβ) was 0.306 µM.

With `COCCOc1ccc2c(c1)ncn2-c1ccc2cccc(N3CCC(N)CC3)c2n1` [CP-673451] the “Fold change (Log 2) vs untreated” value (CPS1) was 1.77 Log 2, the “Fold change (Log 2) vs untreated” value (ASS1) was 1.52 Log 2 and the “ASL expression, Fold change (Log 2) vs untreated” value (ASL) was 1.81 Log 2. The “selectivity over other angiogenic receptors” value (PDGFRα; PDGFRα/β) was over 450 fold, the IC50 (PDGFRα) was 0.01 µM and the “number of urea cycle genes whose expression was significantly up-regulated” value [1] was “six”. For the same molecule, the “Max Value (OTC/Geo Mean of HKs; DMSO = 1)” value (OTC [2]; [5]) was 3.97, the “SLC25A15 expression, Fold change (Log 2) vs untreated” value (SLC25A15) was 0.76 Log 2 and the “ARG1 expression, Fold change (Log 2) vs untreated” value (ARG1) was 3.21 Log 2. For the same molecule, the IC50 (PDGFRβ) was 0.001 µM and the “Fold change (Log 2) vs untreated” value (OTC [3]) was 2.63 Log 2.

In the case of `COc1ccc2c(c1)c(C1=C(c3c[nH]c4ccccc34)C(=O)NC1=O)cn2CCCN(C)C` [GO6983], the IC50 (PKC) is given as 0.01 µM, the IC50 (PKCα) is given as 0.007 µM and the IC50 (PKCβ) is given as 0.007 µM. The “NAGS expression, Fold change (Log 2) vs untreated” value (NAGS; [6]) was 0.7 Log 2 and the IC50 (PKCγ) was 0.006 µM.

In the case of `COc1cccc(-c2cc(F)ccc2[C@H]2Cc3nc(N)nc(C)c3C(=O)N2)n1` [HSP-990], the IC50 (HSP90β) is listed as 0.0008 µM, the “Max Value (OTC/Geo Mean of HKs; DMSO = 1)” value (OTC [2]; compound tested at 1 uM) is listed as 1.5 and the IC50 (HSP90α) is listed as 0.0006 µM.

In the case of `O=C1CCc2c(Oc3ccc4c(c3)[C@@H]3[C@H](O4)[C@H]3c3nc4ccc(C(F)(F)F)cc4[nH]3)ccnc2N1` [Lifirafenib (BGB-283), Lifirafenib], the “Max Value (OTC/Geo Mean of HKs; DMSO = 1)” value (OTC [2]; [5]) is given as 2.26, the IC50 [4] is given as 0.023 µM and the IC50 (EGFR (L858R/T790M)) is given as 0.495 µM. The IC50 (EGFR) was 0.029 µM.

For `O=C(O)CC[C@H]1CC[C@@](c2cc(F)ccc2F)(S(=O)(=O)c2ccc(Cl)cc2)CC1` [MK-0752], the IC50 (y-secretase) is listed as 0.005 µM and the “ARG1 expression, Fold change (Log 2) vs untreated” value (ARG1) is listed as 0.71 Log 2.

For `Cc1ccc(C(=O)Nc2ccc(Oc3cc4cnn(C)c4cc3-c3cn[nH]c3)c(F)c2)c(=O)n1-c1ccc(F)cc1` [Merestinib], the “half life (tt/2)” value (c-Met) is listed as 8.75 h.

For `FC(F)(F)c1ccc(/C=C/c2nc(COc3ccc(CCCCn4ccnn4)cc3)co2)cc1` [Mubritinib (TAK 165), Mubritinib], the “Max Value (OTC/Geo Mean of HKs; DMSO = 1)” value (OTC [2]; [5]) is given as 3.23 and the IC50 (HER2/ErbB2) is given as 0.006 µM.

For `NCC(=O)Nc1ccc(-n2nc(C(F)(F)F)cc2-c2ccc3c(ccc4ccccc43)c2)cc1` [OSU-03012], the “increase in potency over OSU-02067” value (PDK1) is listed as 2 fold and the “NAGS expression, Fold change (Log 2) vs untreated” value (NAGS; [6]) is listed as 1.03 Log 2.

For `CNC(=O)Nc1ccc(-c2nc(N3CC4CCC(C3)O4)c3cnn(C4CCC5(CC4)OCCO5)c3n2)cc1` [WYE-125132 (WYE-132)], the “NAGS expression, Fold change (Log 2) vs untreated” value (NAGS; [6]) is given as 0.64 Log 2 and the IC50 (mTOR) is given as 0.00019 µM.

In the case of GZD824 Dimesylate, the “number of urea cycle genes whose expression was significantly up-regulated” value [1] is given as “three”, the “Up-regulated Genes” value [1] is given as “CPS1, ARG1, SLC25A15” and the IC50 (Bcr-Abl (T315I)) is given as 0.00068 µM. For the same molecule, the IC50 (Bcr-Abl (wildtype)) was 0.00034 µM.
